From PMC6204718, “GCDB: a glaucomatous chemogenomics database for in silico drug discovery” (Database: The Journal of Biological Databases and Curation, 2018)
pIC50: −log10 of the molar value. Read-outs that look alike come from different tables or passages of the source.

Experiments:
[1] = target: T1, human glucocorticoid receptor (hGR) (Homo sapiens, UniProt P04150); experiment: hGR reporter gene assay (GR-GAL4 chimeric receptor, antagonist mode); assay type: cell-based
T1 construct: expressed in transfected cells; host or cells: HEK293T
T1 sequence (P04150 524-758 limits assumed): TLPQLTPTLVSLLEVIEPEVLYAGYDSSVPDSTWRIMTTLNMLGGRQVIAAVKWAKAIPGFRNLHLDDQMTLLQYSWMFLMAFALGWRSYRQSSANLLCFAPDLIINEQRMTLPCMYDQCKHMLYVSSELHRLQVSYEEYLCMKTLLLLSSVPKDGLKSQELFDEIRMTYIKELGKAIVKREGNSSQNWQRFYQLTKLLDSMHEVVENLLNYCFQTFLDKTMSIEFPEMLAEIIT
Text: (§1) Pharmaron (Beijing) was commissioned to perform in vitro inhibition screening of hGR and A3AR.
The coding sequence of hGR ligand-binding domain was inserted into the pBIND expression vector (Promega, E1581) to express GR-GAL4 binding domain chimeric receptors. The expression vector and reporter vector were co-transfected into HEK293T host cells. The principle of the assay is that once the agonist binds to the corresponding GR-GAL4 chimeric receptor, the reporter gene is activated after binding of the chimeric receptor to the GAL4 binding sites. When the antagonist and agonist are in the system, the antagonist will compete with the agonist for binding to the GR-GAL4 chimeric receptor, inhibiting the reporter gene. Cyproterone was used as a positive control. All six test compounds were prepared in dimethyl sulfoxide (DMSO) at 10 mM and further diluted. Each compound was added to wells at final concentrations of 100 μM, 50 μM, 16.67 μM, 5.56 μM, 1.85 μM, 0.62 μM, 0.21 μM, 0.07 μM, 0.02 μM, 0.008 μM and 0.003 μM.

human A3AR = target: T2, human A3AR (Homo sapiens, UniProt P0DMS8); experiment: A3AR cell-based functional assay (A3AR-mediated cAMP production, CHO-ADORA3 cells); settings: for pIC50: target A3AR, cAMP level of ADORA3-CHO cells elicited by NECA
T2 construct: host or cells: CHO-K1 (CHO-ADORA3)
T2 sequence (P0DMS8 1-318): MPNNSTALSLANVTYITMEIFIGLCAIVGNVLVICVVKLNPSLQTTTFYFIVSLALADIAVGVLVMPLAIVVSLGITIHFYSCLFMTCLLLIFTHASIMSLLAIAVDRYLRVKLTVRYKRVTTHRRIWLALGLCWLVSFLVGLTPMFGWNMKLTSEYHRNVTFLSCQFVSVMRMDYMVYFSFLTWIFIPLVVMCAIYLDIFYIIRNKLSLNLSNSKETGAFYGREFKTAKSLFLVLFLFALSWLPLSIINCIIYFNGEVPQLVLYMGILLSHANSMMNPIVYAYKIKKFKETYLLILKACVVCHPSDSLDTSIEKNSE
Method: as §1
The four test compounds were evaluated as A3AR antagonists by A3AR-mediated cAMP production in cell-based functional assays. CHO-ADORA3 cells in which the A3AR was transfected in engineered CHO-K1 cells (PerkinElmer) to express the human A3AR were employed. The cells were collected by centrifugation and resuspended with Hank’s Buffered Saline Solution, 5 mM 4-(2-hydroxyethyl)-1-piperazineethanesulfonic acid (HEPES), 0.1% bovine serum albumin (BSA) stabilizer (pH 7.4) and 10 μM Rolipram. 2000 cells per well were added to 384 wells solid white plate. Test compounds were prepared with DMSO in 3-fold serial dilutions of 11 concentrations and dispensed to assay plates. Each compound was tested within the range of 1.69 × 10^-3–100 μM. The serial dilutions of adenosine-5′-N-ethyluronamide (NECA, 10 nl/well) was transferred to 384 wells and incubated at room temperature for 30 min. A LANCE cAMP 384 kit (Perkin Elmer, USA) was used to measure the intracellular cAMP levels. Forskolin (1 μM) was used to stimulate adenylyl cyclase activity and induce cAMP production. NECA and VUF-5574 were used as reference compounds.

[2] = target GR, GR-GAL4 reporter gene assay in HEK293T cells, read-out: IC50 (half-maximal inhibitory concentration)
[3] = read-out: IC50 (half-maximal inhibitory concentration)

| Compound | pIC50 [1, 2] | pIC50 (human A3AR; [3]) | other results |
| --- | --- | --- | --- |
| CC(=O)C1(O)CCC2C3CCC4(C)CC(=O)CCC4(C)C3C(=O)CC21C (centres unmarked) [GR-3] | 4.57 | – | – |
| O=S(=O)(Nc1cccc(-c2nc3ccccc3s2)c1)c1ccc(F)c(Cl)c1 [GR-5] | 4.74 | – | – |
| CC(=O)OC1CCC2(C)C(=CCC3C2CCC2(C)C(OC(=O)c4ccccc4)CCC32)C1 (centres unmarked) [GR-1] | – | – | pIC50 [1]: 4.55 |
| Cc1nnc(SCC(=O)Nc2ccc(S(N)(=O)=O)cc2)c2nn(-c3ccccc3)c(C)c12 [GR-4] | 4.63 | – | – |
| C#CC1(O)CCC2C3CCc4cc(Oc5ccc([N+](=O)[O-])cc5)ccc4C3CCC21C (centres unmarked) [GR-2] | 5.53 | – | – |
| NC(=O)c1nnc2cc(-c3ccccc3)nn2c1-c1ccccc1Cl [A3-2] | – | < 5.00 | – |
| CC1(O)CCC2C3CCC4=CC(=O)CCC4C3CCC21C (centres unmarked) [A3-4] | – | – | pIC50 (human A3AR; IC50 (half-maximal inhibitory concentration)): < 5.00 |
| CC(=O)OCC(=O)C1(OC(C)=O)CCC2C3CCC4=CC(=O)C=CC4(C)C3C(=O)CC21C (centres unmarked) [GR-6] | 5.07 | – | – |
| O/N=C/c1cn(-c2ccccc2)nc1-c1ccccc1 [A3-3] | – | 5.21 | LE value (human A3AR; ligand efficiency based on IC50, 20 heavy atoms): 0.36 kcal/mol |
| CC(=O)Nc1ccc(S(=O)(=O)Nc2cc(C(F)(F)F)cc(C(F)(F)F)c2)cc1 [A3-1] | – | < 5.00 | – |
